How the values were obtained:
[1] = system: Platelet-derived growth factor receptor beta (PGFRB_HUMAN); set-up: method as in earlier work; conditions: S2/S3 Table; ref [1] Davis MI et al., Nat Biotechnol. 2011; cited from earlier work
Hh/SMO pathway = test: Gli-Luciferase functional assay, NIH 3T3 Gli-RE cells stimulated with ShhN; assay type: cell-based; conditions: NIH 3T3 Gli-RE cells, ShhN stimulated
Procedure: After 24 hours, when the cells reached confluency, the culture medium was replaced with 80 μL per well of assay medium [Optimem ± 10 mM HEPES ± 1 mM Sodium Pyruvate + 1× MEM NEAA]. […] Then the cells were stimulated by addition of either ShhN-conditioned media or control media (DMEM±10%BCS) at a final concentration of 10%. Following incubation of the plate for at least 28 hours at 37°C, the cells were simultaneously lysed and supplemented with a luciferase substrate by addition of equal volume of Steady-Glo reagent (Promega, E2520) directly to the assay media. Plates were mixed by pipetting, centrifuged to eliminate foam, incubated for 10 minutes, and analyzed using Perkin Elmer Viktor X luminescence plate reader. The results were analyzed using a non-linear regression (Prism 6, GraphPad Software, La Jolla, CA). Data were normalized to the maximal response observed for ShhN-stimulated cells in the same experiment. A sigmoidal-dose response curve was used as a model for data analysis and IC50 value calculation.

MB-PDX cells = test: Neurosphere formation assay; assay type: cell-based, human; conditions: MB-PDX, 10 μM, at least 7 days, 1–2 cells per well
Procedure: (§1) The final concentration of test compounds in the wells was 10 μM. Cells were incubated at 37 °C for at least seven days. After incubation percent of wells positive with neural stem cell-derived sphere colonies were calculated for each test condition and compared.

DAOY cells = test: Neurosphere formation assay; assay type: cell-based, human; conditions: DAOY, 10 μM, at least 7 days, 1–2 cells per well
Procedure: as §1

MB-PDX and DAOY cells = test: Cell viability with and without Vismodegib (0.5 uM), alamar blue; assay type: cell-based, human; conditions: with 0.5 μM Vismodegib, 72 hours
Procedure: S6 Figure: Cell viability in Medulloblastoma Cells (MB-PDX and DAOY) [n=3]. […] The cell viability was measured after 72 hours of treatment using alamar blue. (Mean ± SD)

[2] = system: firefly luciferase under control of cAMP response element (CRE); test: CRE-luciferase counter assay in HEK293s cells; assay type: cell-based; conditions: different concentrations
Procedure: (a) The drugs were tested at different concentrations in HEK293s cells stably transfected with firefly luciferase under control of cAMP response element (CRE) (pGL4.29[luc2P/CRE/Hygro], Promega). […] Raw, non-normalized luminescence values are presented, to facilitate the assessment of the extent of inhibition. Shown is a single representative experiment out of the multiple experiments performed on different days. (Mean ± SD)

[3] = system: Platelet-derived growth factor receptor alpha (PGFRA_HUMAN); set-up: method as in earlier work; conditions: S2/S3 Table; ref [1] Davis MI et al., Nat Biotechnol. 2011; cited from earlier work
[4] = system: Mast/stem cell growth factor receptor Kit (KIT_HUMAN); set-up: method as in earlier work; conditions: S2/S3 Table; ref [1] Davis MI et al., Nat Biotechnol. 2011; cited from earlier work

In the case of Cc1ccc(NC(=O)c2ccc(CN3CCN(C)CC3)cc2)cc1Nc1nccc(-c2cccnc2)n1 [Imatinib], the “Kd/Ki Value” [1] is listed as 14 nM, the “Inhibition of ShhN-induced Hh signaling (in words)” value (Hh/SMO pathway) is listed as “inhibited ShhN-induced Hh signaling in a dose-dependent manner” and the “Inhibition of NS formation, wells” value (MB-PDX cells) is listed as “less potent”. The “Inhibition of NS formation, wells” value (DAOY cells) was “less potent”, the “Change of efficacy in cell viability assay in the presence of Vismodegib” value (MB-PDX and DAOY cells) was “improvement in efficacy” and the “Effect on CRE-driven luciferase activity (independent of SMO)” value [2] was “lack of dose-dependent effect”. For the same compound, the “Kd/Ki Value” [3] was 31 nM and the “Kd/Ki Value” [4] was 13 nM.

Source: article PMC6754133 (PLoS ONE, 2019)
